According to patent publication US6998395B2, “Administration of estradiol metabolites for the treatment or prevention of obesity, metabolic syndrome, diabetes, and vascular and renal disorders” (University of Pittsburg,, priority 2001, dated 2006):

Experiments:
rats = details: Oparil et al., Circulation 95:1301 (1997); cited from earlier work
[1] = Kernan et al., 2000; cited from earlier work
male ZSF1 rats [2] = assay: Treatment of male ZSF1 rats for 24 weeks with 2-hydroxyestradiol or 2-methoxyestradiol; type: in vivo, rat; details: 10 ug/kg/hr, 28 weeks, versus control animals
male ZSF1 rats [3] = assay: as above; type: in vivo, rat
Method: Male ZSF1 rats were treated continuously for 24 weeks with polyethylene glycol 400 (PEG 400) (Sigma, St. Louis, Mo.) or one of three doses of 2-hydroxyestradiol or 2-methoxyestradiol (Steraloids, Inc. Newport, R.I.) dissolved in PEG 400. The three doses were 1 ug/kg/hr, 3 ug/kg/hr or 10 ug/kg/hr. Female ZSF1 rats were treated continuously for 24 weeks with either PEG 400 or 10 ug/kg/hr of 2-hydroxyestradiol. Female ZSF1 rats were ovarectomized at 11 weeks of age. For all animals, both male and female, treatments with estradiol metabolites were begun at approximately 13 weeks of age. One group of male ZSF1 rats received only PEG 400 but were pair fed to receive the same daily food intake as the male ZSF1 rats treated with 10 ug/kg/hr 2-hydroxyestradiol. Treatment was administered via subcutaneous implanted pumps (Alzet Osmotic Pump, Model 2ML4, Alza Corporation, Palo Alto, Calif.). The study was designed to evaluate treatment effects and dose responses on body weight, food intake, water intake, urine output, urinary protein excretion, cholesterol levels, plasma glucose levels and glucose tolerance.
Stock solutions of both 2-hydroxyestradiol and 2-methoxyestradiol were made by dissolving the required amount of estradiol metabolite in PEG 400. This solution was diluted in PEG 400 to deliver the three required doses based on the mean weight of each treatment group and the stated volume delivery rate for each lot of osmotic pumps in the study. This stock solution was prepared fresh prior to each osmotic pump implantation in each group. The control solution of PEG 400 was created in the same manner.
All treatments were administered via a subcutaneously implanted osmotic pump (Alzet Osmotic Pump, Model 2ML4, Alza Corporation, Palo Alto, Calif.). Each lot of osmotic pumps were delivered with the stated rate of delivery and formulation concentrations were adjusted to ensure delivery of 1,3, or 10 ug/kg/hr based on the stated rate of delivery of each lot. Doses were adjusted for the mean weight of the animals in the treatment group obtained 24 hours prior to implantation of the osmotic minipump.
Animals were anesthetized prior to implantation of an osmotic minipump with halothane and oxygen (2.5 liter/min) delivered by a Fluotec 3 anesthetic device (Ohmeda, Steeton, UK). After lightly anesthetizing each animal, implantation was accomplished by shaving the back and creating a half-inch incision in which to insert the osmotic minipump. The incision was then closed with wound clips that were removed in seven days. Osmotic minipumps were replaced at 33-day intervals and each time a particular animal received an osmotic minipump, the insertion point was changed.
Metabolic cages (Nalgene, Rochester, N.Y.) were used in this study. Animals were placed in metabolic cages for 48 hours. The first 24-hour period was considered an acclimation period, while food and fluid intake and urine volume were measured during the second 24-hour period. Additionally, a tail vein sample was obtained to measure blood glucose, sodium, potassium, albumin and creatinine. The blood was further analyzed to assess creatinine clearance, fractional sodium excretion, fractional potassium excretion and fractional albumin excretion. In addition, the following criteria were also assessed while the animals were in the metabolic cages: body weight, feed intake, water intake, urine output, urinary protein, urinary albumin, urinary glucose, urinary sodium and urinary potassium.
Body weights were assessed 24 hours before pump implantation and those weights were used to calculate the dosage of drug or vehicle to be given to each animal based on the mean body weight of each group. Animals were weighed approximately once every two months prior to being placed in a metabolic cage.
Food intake was measured by filling the food containers with standard powder laboratory food up to a total weight of 250 grams. […]

[4] = male, 10 ug/kg/hr, 24 weeks, versus control animals
[5] = male, 1, 3 or 10 ug/kg/hr s.c. osmotic pump, 24 weeks, versus control

Compound: C[C@]12CC[C@@H]3c4ccc(O)cc4CC[C@H]3[C@@H]1CC[C@@H]2O [17β-estradiol]
- Body weight of rats (rats): reduction
- Vascular protection (rats): vascular protection

Compound: CC(N)C(O)c1ccccc1 (stereo not drawn) [phenylpropanolamine]
- Adverse effect (stroke) [1]: causes stroke

Compound: COc1cc2c(cc1O)CC[C@@H]1[C@@H]2CC[C@]2(C)[C@@H](O)CC[C@@H]12 [2-methoxyestradiol, estra-1,3,5 (10)-triene-2-methoxy-3,17-diol (17β)]
- Glycated hemoglobin (HbA1c) (FIG. 14) (male ZSF1 rats [2]): lower
- Leptin levels (FIG. 11) (male ZSF1 rats [3]; male, 10 ug/kg/hr, 20 weeks, versus control animals): clearly reduced
- 24-hour urine output (FIG. 13) (male ZSF1 rats [3]; [4]): lower
- 24-hour water intake (FIG. 12) (male ZSF1 rats [3]; [4]): lower
- Blood urea nitrogen (FIG. 10) (male ZSF1 rats [3]; male, 10 ug/kg/hr, 24 weeks, versus control groups): lower
- Plasma level of glucose after administration of 2 g/4 ml/kg glucose (oral glucose tolerance test, FIGS. 8 and 9) (male ZSF1 rats [3]; male, 10 ug/kg/hr, treated for 14 to 15 weeks, versus control groups): lower
- Body weight gain (FIGS. 4 and 5) (male ZSF1 rats [3]; [5]): less body weight gain
- Food intake (male ZSF1 rats [3]; [5]): lower food intake
- Urinary protein excretion (FIG. 7) (male ZSF1 rats [3]; male, 1, 3 or 10 ug/kg/hr, after 24 weeks of treatment, versus control animals): lower
